Columns and labels:
[1] = test system: vascular calcification in Mgp−/− mice; test: Late vascular calcification in Mgp−/− mice; assay type: in vivo, mouse
Procedure: It was next examined if SB216763 reversed osteogenesis in vascular calcification by treating Mgp^−/− mice at 4 weeks of age for 2 weeks (FIG. 5, Part F).
Mgp^+/− (B6.129S7-Mgptm1Kry/KbosJ), Col1α1^CreERT2 (B6.Cg-Tg(Col1α1-cre/ERT2)1Crm/J), GSK3β^flox/flox (B6.129(Cg)-Gsk3btm2Jrw/J) and Osx-Gfptg (B6.Cg-Tg(Sp7-tTA,tetO-EGFP/cre)1Amc/J) mice on C57BL/6J background were purchased from the Jackson Laboratory. Genotypes were confirmed by PCR, and experiments were performed with generation F4-F6. Littermates were used as wild type controls. All mice were fed a standard chow diet. The studies were reviewed and approved by the Institutional Review Board and conducted in accordance with the animal care guidelines set by the University of California, Los Angeles (UCLA). The investigation conformed to the National Research Council, Guide for the Care and Use of Laboratory Animals, Eighth Edition (Washington, D.C.: The National Academies Press, 2011).
MicroCT imaging was performed at the Crump Imaging Center at UCLA. All the samples were scanned on a high-resolution, volumetric microCT scanner (CT125). The image data were acquired with the following parameters: 10 μm isotropic voxel resolution; 200 ms exposure time; 2,000 views and 5 frames per view. The microCT-generated DICOM files were used to analyze the samples and to create volume renderings of the regions of interest. The raw data files were viewed using the MicroView 3-D volume viewer and analysis tool (GE Healthcare) and AltaViewer™ Software. Additionally, images of the samples were generated using SCIRun (Scientific Computing and Imaging Institute).

[2] = test system: SMAD1 and β-catenin; test: Immunoblotting of SMAD1, phosphorylated SMAD1 and β-catenin in treated osteoblasts; assay type: cell-based, mouse; details: different doses
Excerpt: The expression of transcription factors that are known to be involved in bone formation or vascular development were screened. […] To determine if excess β-catenin affected SMAD1 expression, β-catenin in SB216763-treated osteoblasts was depleted by using siRNA. […] DNA-binding sites of β-catenin by locating the binding motifs in Smad1 gene was explored, and identified four individual sites located at −196 bp, −1454 bp, −2805 bp and −4729 bp upstream of exon1 of Smad1 gene (FIG. 3, Part D). […] Then, transcriptional status of Smad1 was determined by examining the histone modification, including trimethylated histone H3 lysine 4 (H3K4me3) associated with active transcription and H3K27me3 a closed chromatin mark.
Immunoblotting was performed as previously described. Equal amounts of tissue lysates were used for immunoblotting. Blots were incubated with specific antibodies to SMAD1, GSK3α and GSK3β (all from Cell Signaling Technology, 9743, 433T and 93115), β-catenin and cbfa1 (all from R&D system, AF1329 and MAB2006), osterix (Santa Cruz Biotechnology, sc-22536), Flk1 and VE-cadherin (all from BD Bioscience, 55307 and 562242), vWF (Dako, A0082). 3-Actin (Sigma-Aldrich, A2228) was used as a loading control. Immunofluorescence was performed as previously described in detail. […]

[3] = test system: Flk1-eGFP osteoblasts (mouse osteoblast line MC3T3); test: High throughput screen for eGFP expression in Flk1-eGFP osteoblasts; assay type: cell-based; details: after 14 days of treatment
Excerpt: A high throughput screen was generated by modifying the mouse osteoblast line MC3T3. Fetal liver kinase 1 (Flk1) promoter-driven enhanced green fluorescent protein (eGFP) was introduced into these osteoblasts. […] Several libraries of small molecules, including a FDA-approved drug library, a UCLA in-house collection, and a custom set of compounds were screened. These libraries contained more than 22,000 small molecules ranging from natural products to synthesized compounds. […] It was further determined the specificity of endothelial differentiation by closely examining other vascular lineage markers including smooth muscle cells (SMCs), pericytes, and fibroblasts by using real-time PCR. […] Because GSK3 is important in glucose metabolism, the expression of genes related to glucose metabolism was determined in the SB216763-treated osteoblasts, such as casein kinase 2, glucose transporter 4, and insulin receptor substrates 1 and 2.
MC3T3 cells were stably infected with Flk1 promoter-driven eGFP by using Flk1-eGFP lentivirus (GeneCopoeia™). […] The plates were transferred and delivered by a Thermo Scientific™ Spinnaker™ Robot (ThermoFisher Scientific). eGFP expression was determined and imaged using a FlexStation II and Victor 3V (Perkin Elmer) every day for two weeks.

[4] = test system: mouse osteoblast line MC3T3; test: Real-time PCR of osteogenic, endothelial and other lineage markers in treated mouse osteoblasts; assay type: cell-based
Excerpt: A high throughput screen was generated by modifying the mouse osteoblast line MC3T3. Fetal liver kinase 1 (Flk1) promoter-driven enhanced green fluorescent protein (eGFP) was introduced into these osteoblasts. […] Several libraries of small molecules, including a FDA-approved drug library, a UCLA in-house collection, and a custom set of compounds were screened. These libraries contained more than 22,000 small molecules ranging from natural products to synthesized compounds. […] Using arrange of dose (1-10 μM), it is shown that the reduction of the osteogenic markers Cbfa1, osterix and osteocalcin and the induction of the endothelial markers CD34, VE-cadherin, CD31 and eNOS occurred in a dose-dependent manner (FIG. 1, Part E). Osteoblasts were then treated with 10 μM SB216763 and examined the time-course expression of these osteogenic and endothelial markers. […] To determine if a mesenchymal stage or emerging stemness is required for SB216763 to induce osteoblastic-endothelial transdifferentiation, mesenchymal and stem cell markers were examined and found no induction in the SB216763-treated cells (FIG. 9, Part E). It was further determined the specificity of endothelial differentiation by closely examining other vascular lineage markers including smooth muscle cells (SMCs), pericytes, and fibroblasts by using real-time PCR. In addition, no-vascular lineages, such as cardiac, neuronal, hepatic, pulmonary, renal, hematopoietic and adipogenic lineages were examined. […] Because GSK3 is important in glucose metabolism, the expression of genes related to glucose metabolism was determined in the SB216763-treated osteoblasts, such as casein kinase 2, glucose transporter 4, and insulin receptor substrates 1 and 2.
Real-time PCR analysis was performed as previously described. Glyceraldehyde 3-phosphate dehydrogenase (GAPDH) was used as a control gene. Primers and probes for mouse and human Cbfa1, ostrix, osteocalcin, CD34, VE-cadherin, CD31, eNOS, SMAD1, and β-catenin, were obtained from Applied Biosystems as part of Tagman® Gene Expression Assays.

[5] = Mgp−/− mice at 4 weeks of age treated for 2 weeks
[6] = dose range 1-10 μM, dose-dependent manner

Structure (SMILES): Cn1cc(C2=C(c3ccc(Cl)cc3Cl)C(=O)NC2=O)c2ccccc21 [SB216763]
- CD31-positive cells co-expressing VE-cadherin and osterix, FACS [1, 5]: decrease of CD31-positive cells that co-expressed VE-cadherin and osterix
- CD31-positive cells expressing VE-cadherin only, FACS [1, 5]: increase of CD31-positive cells that expressed VE-cadherin only
- aortic calcification, microCT imaging [1, 5]: reduction of aortic calcification
- histology of calcified areas of the aortas [1, 5]: change in morphology in calcified areas of the aortas
- mineralization of whole aortic tissues, alizarin red staining [1, 5]: reduction of mineralization
- total aortic calcium and mineral deposition [1, 5]: decrease of total aortic calcium and mineral deposition
- osteogenic markers in aortic tissue, real-time PCR ([1]; treated Mgp−/− mice compared to non-treated mice): decrease of osteogenic markers
- expression and phosphorylation of SMAD1 [2]: dose-dependent decrease
- β-catenin protein level [2]: robust increase
- cell morphology [3]: converted osteoblasts into EC-like morphology
- eGFP expression [3]: strongly activated eGFP expression
- time-course expression of osteogenic and endothelial markers ([4]; 10 μM): a reduction of osteogenic markers preceded the induction of the endothelial markers
- expression of endothelial markers CD34, VE-cadherin, CD31 and eNOS [4, 6]: induction
- expression of osteogenic markers Cbfa1, osterix and osteocalcin [4, 6]: reduction
- other vascular and non-vascular lineage markers (SMC, pericyte, fibroblast, cardiac, neuronal, hepatic, pulmonary, renal, hematopoietic, adipogenic) ([4]; real-time PCR): No changes were found
- mesenchymal and stem cell markers ([4]; treated cells): no induction
- expression of genes related to glucose metabolism (casein kinase 2, glucose transporter 4, insulin receptor substrates 1 and 2) ([4]; treated osteoblasts): No changes were detected

Reference: patent publication US20230285357A1, “COMPOSITIONS AND METHODS FOR […] CELLS” (The Regents of the University of California, priority 2020, published 2023)
